How the values were obtained:
human D2(long) [1] = biological target: T1, human D2(long) (Homo sapiens, UniProt P14416); assay: Competitive radioligand binding, 125I-IABN, D2 dopamine receptors
human D3 = human D3 (Homo sapiens, UniProt P35462); assay: Competitive radioligand binding, 125I-IABN, D3 dopamine receptors; conditions: read-out: Ki D3
sigma-1 (σ1) receptors = sigma-1 (σ1) receptors (Cavia porcellus, UniProt Q60492); assay: Sigma-1 receptor binding, [3H]; set-up: species or system guinea pig; conditions: read-out: Ki σ1
Sequence of sigma-1 (σ1) receptors (Q60492 whole entry): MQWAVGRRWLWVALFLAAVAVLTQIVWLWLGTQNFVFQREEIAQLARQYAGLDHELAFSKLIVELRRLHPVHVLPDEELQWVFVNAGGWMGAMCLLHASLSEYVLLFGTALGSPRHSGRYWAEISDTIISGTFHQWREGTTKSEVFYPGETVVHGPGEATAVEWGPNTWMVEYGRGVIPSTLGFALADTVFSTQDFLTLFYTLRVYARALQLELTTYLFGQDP

sigma-2 (σ2) receptors = biological target: T2, sigma-2 (σ2) receptors (Rattus norvegicus, UniProt Q5U3Y7); assay: Sigma-2 receptor binding, rat liver membranes; conditions: read-out: Ki σ2
T2 sequence (Q5U3Y7 1-176): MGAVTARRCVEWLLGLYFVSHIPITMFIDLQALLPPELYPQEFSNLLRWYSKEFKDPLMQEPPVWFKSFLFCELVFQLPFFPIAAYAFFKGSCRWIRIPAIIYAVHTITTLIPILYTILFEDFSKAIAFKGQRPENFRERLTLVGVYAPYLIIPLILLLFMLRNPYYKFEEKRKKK

human D2(long) [2] = biological target: T1, human D2(long); assay: Forskolin-dependent whole cell adenylyl cyclase inhibition assay; type: cell-based; conditions: for effect on quinpirole inhibition of adenylyl cyclase: 10 nM test drug in presence of 10 nM quinpirole; for inhibition of forskolin-dependent cAMP accumulation: 10 nM, human D2long in HEK 293 cells, n = 4; for intrinsic efficacy category at D2 dopamine receptors: based on adenylyl cyclase assay

T1 sequence (P14416 whole entry): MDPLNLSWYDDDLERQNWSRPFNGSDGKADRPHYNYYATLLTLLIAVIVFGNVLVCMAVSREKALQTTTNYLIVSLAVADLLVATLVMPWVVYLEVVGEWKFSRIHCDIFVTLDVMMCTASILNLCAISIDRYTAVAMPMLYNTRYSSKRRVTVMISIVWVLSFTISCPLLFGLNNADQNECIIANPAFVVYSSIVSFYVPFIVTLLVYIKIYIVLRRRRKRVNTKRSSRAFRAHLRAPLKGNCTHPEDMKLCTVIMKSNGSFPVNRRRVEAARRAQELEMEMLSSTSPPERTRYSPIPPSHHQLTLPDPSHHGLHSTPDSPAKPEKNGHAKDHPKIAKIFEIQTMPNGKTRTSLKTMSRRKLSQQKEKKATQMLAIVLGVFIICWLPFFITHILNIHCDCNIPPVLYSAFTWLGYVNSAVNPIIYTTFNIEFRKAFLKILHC
Sequence of human D3 (P35462 whole entry): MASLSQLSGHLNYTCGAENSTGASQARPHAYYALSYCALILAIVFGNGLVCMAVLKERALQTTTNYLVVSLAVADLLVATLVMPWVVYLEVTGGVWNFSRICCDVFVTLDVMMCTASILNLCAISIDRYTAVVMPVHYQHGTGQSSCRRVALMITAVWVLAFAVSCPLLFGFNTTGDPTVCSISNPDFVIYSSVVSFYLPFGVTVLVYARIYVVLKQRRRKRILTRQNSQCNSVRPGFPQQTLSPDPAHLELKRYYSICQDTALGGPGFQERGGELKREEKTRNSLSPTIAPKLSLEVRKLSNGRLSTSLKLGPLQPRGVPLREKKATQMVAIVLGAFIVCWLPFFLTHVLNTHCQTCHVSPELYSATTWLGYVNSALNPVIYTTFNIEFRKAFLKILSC

| Compound | D3:D2 (Ki for D3 receptors/Ki for D2 receptors) (human D2(long) [1]) | Ki (human D2(long) [1]; read-out: Ki D2) | Ki (human D3) | Ki (sigma-1 (σ1) receptors) | Ki (sigma-2 (σ2) receptors) | effect on quinpirole inhibition of adenylyl cyclase (human D2(long) [2]) | inhibition of forskolin-dependent cAMP accumulation (human D2(long) [2]) | intrinsic efficacy category at D2 dopamine receptors (human D2(long) [2]) |
| --- | --- | --- | --- | --- | --- | --- | --- | --- |
| 1-(Benzo[b]thiophen-2-ylmethyl)-4-(4-bromophenyl)piperidin-4-ol oxalate [Compound 20] | 3.0 | 46.8 ± 3 nM | 142 ± 27 nM | 2.13 ± 0.44 nM | 1960 ± 177 nM | – | – | – |
| COc1cccc2[nH]cc(CN3CCC(O)(c4ccc(I)cc4)CC3)c12.O=C(O)C(=O)O [Compound 6, 4-(4-Iodophenyl)-1-((4-methoxy-1H-indol-3-yl)methyl)piperidin-4-ol oxalate] | – | – | – | – | – | able to attenuate the effect of quinpirole | no appreciable increase or decrease | neutral antagonists |
| COc1ccc2[nH]cc(CN3CCC(O)(c4ccc(I)cc4)CC3)c2c1.O=C(O)C(=O)O [Compound 7, 4-(4-Iodophenyl)-1-((5-methoxy-1H-indol-3-yl)methyl)piperidin-4-ol oxalate] | – | – | – | – | – | able to attenuate the effect of quinpirole | no appreciable increase or decrease | neutral antagonists |
| CN1CN(c2ccccc2)C2(CCN(Cc3coc4ccccc34)CC2)C1=O.O=C(O)C(=O)O [Compound 25, 8-(Benzofuran-3-ylmethyl)-3-methyl-1-phenyl-1,3,8-triazaspiro[4.5]decan-4-one oxalate] | 0.3 | – | – | – | – | – | – | – |

Source: article PMC2946321 (Bioorganic & medicinal chemistry, 2010)
